Data on one compound can be found in patent publication US20130209515A1, “ANTI-INFECTIVE AND IMMUNOMODULATORY COMPOUNDS” (priority 2005, published 2013).

The test system of test [1] is pqsA-LacZ (MvfR-dependent pqs operon transcription). In words: pqsA-LacZ expression (β-galactosidase activity). The class given is cell-based, Pseudomonas aeruginosa. On the procedure: To assess the effect of this compound on bacteria, we analyzed the production of HAQs in the presence of 2AA using LC/MS. The bacteria were propagated in the presence of 3 mM 2AA, culture media was collected at different time points, and the HHQ, PQS and HQNO production was measured in the supernatant. […] Since 2AA addition to the P. aeruginosa culture inhibits the production of HHQ and PQS, we assessed the transcription from the pqs operon using a pqsA-LacZ fusion.
To further, understand the mechanism of inhibition of the pqs operon by 2AA, we carried out competition assays of PQS and HHQ with 2AA. The expression of pqsA-LacZ in pqsApqsH double mutants was assessed. Bacteria were grown to an OD600 of 1.0 and HHQ and PQS were added either alone or with 2AA. LacZ expression was assayed at different stages of the growth, using standard protocols.
To determine whether HHQ activates MvfR expression, we generated a PA14pqsH/pqsA double mutant that lacks all HAQ production, and assessed pqsA-lacZ activity in the absence and presence of HHQ and PQS.

The next test relates to P. aeruginosa. The experiment in a line: P. aeruginosa growth kinetics (spectrophotometric analysis at 600 nm). Type of test: cell-based, Pseudomonas aeruginosa. The following applies: 2 mM compound, followed over 26 hours at 600 nm (FIG. 4). An excerpt: P. aeruginosa strains include wild-type (PA14, see Rahme et al., Science 268:1899-1902, 1995); a PA14 mvfR mutant (Cao et al., Proc. Natl. Acad. Sci. USA 98:14613-14618, 2001); a pqsE deletion mutant, generated via pEX18Ap allelic replacement by using sucrose selection (Hoang et al., Gene 212:77-86, 1998), resulting in a 570-bp nonpolar deletion covering 65% of the sequence (Déziel et al. PNAS); and the pqsA (U479) TnphoA mutant obtained from the PA14 Transposon Insertion Mutant Database. Bacteria were grown in LB broth or on 1.5% Bacto-agar (Difco) LB plates. Freshly plated cells served as inoculum.
P. aeruginosa was grown in the presence of 2 mM of 2′-aminoacetophenone (2AA), 3′-aminoacetophenone (3AA), 4′-aminoacetophenone (4AA), or 2′-nitroacetophenone (2NA), or in the absence of any of these compounds (control). Bacterial growth was followed over 26 hours by spectrophotometric analysis at 600 nm.
Bacterial growth was also followed over 35 hours by spectrophotometric analysis at 600 nm.

A further test concerns P. aeruginosa PA14. The experiment in a line: Mouse burn and infection (BI) model, survival. The class given is in vivo, mice. On the procedure: Burn wound infection in mice can be established by subcutaneous or topical administration of the bacteria to the sites of the burn. […] Six-week old CD-1 male mice were used.
To induce infection, the mice were placed under general anesthesia via intraperitonial injection of 40 mg/kg Pentobarbital, the ventral surface was shaved, and a central skin fold elevated was simultaneously compressed from both sides for 5 seconds using two 2×2 cm metal blocks preheated to 95-100° C., to produce a non-lethal 5-8% full thickness burn with negligible focal necrosis of the underlying muscle or damage to underlying visceral organs. IP saline was administered for fluid resuscitation for ≧5% total body surface burns: avoiding vital structures, saline was injected into the left lower quadrant of the abdominal area of the anesthetized animal post-burn. This burn procedure was followed by mid-eschar inoculation of 100 μL of bacterial suspension containing ˜5×10^5 CFU. The animals were returned to their cages and provided mouse chow and water ad libitum. Animals typically recover from the anesthesia within 20 minutes post-administration. Criteria used to evaluate anesthesia recovery are state of alertness, mobility, and reaction to surrounding stimuli. Mice were monitored twice a day for symptoms and deaths, with increased monitoring every 6-8 hours during the period of greatest potential for infection and clinical disease.
The mouse full-thickness skin thermal injury infection model was used to test if 2AA restricts P, aeruginosa virulence. This model is predictable and reproducible; clinically relevant; and can lead to MODS and mortality. Briefly, a ˜15% total burn surface area (TBSA) thermal scalding injury is produced on the abdominal skin, leaving the underlying muscle intact, and the inoculum is delivered into the scald eschar. […]

The structures appear in SMILES notation. “Also recorded” adds a separate entry of the source.

Usually mortality stands for the share of the test organisms that died. Regarding `CC(=O)c1ccccc1N` [2AA, 2′-aminoacetophenone], in test [1] (PA14, 3 mM 2AA (FIG. 14)), the “LacZ expression from pqsA-LacZ fusion” value is on record as “significant reduction”. The “pqsA expression (pqsA-LacZ) in response to HHQ” value in test [1] (pqsApqsH double mutant, 3 mM 2AA with 1 mg/L HHQ) was “blocks pqsA expression”. In addition, the “pqsA expression (pqsA-LacZ) in response to PQS” value in test [1] (pqsApqsH double mutant, 3 mM 2AA with 10 μl PQS) is listed as “blocks pqsA expression; also recorded: inhibits pqsA expression at later time points”. The Bacterial growth result with P. aeruginosa is listed as “only slightly retarded”. For the same compound, the “protection (survival curves)” value in the test with P. aeruginosa PA14 (10 mM solutions IV 4 days pre-BI (FIGS. 11A, 11B)) is “significantly greater”. The “time to succumb to PA14 lethality” value in the test with P. aeruginosa PA14 (2AA injected in the scald eschar 1 hr post BI (FIG. 7)) is recorded as “significantly later”. For the same compound, the survival in the test on P. aeruginosa PA14 (IP 2AA injection 3 days pre-BI) and with P. aeruginosa PA14 (IP 2AA injection 8 days pre-BI) was 50% each time. Also, the mortality with P. aeruginosa PA14 (IP 2AA injection up to 4 weeks pre-BI) was 50%; with P. aeruginosa PA14 (IP 500 μl of 20 mM, 2 days pre-BI, controls ~90%), 60%. In addition, the “survival to PA14 infection” value with P. aeruginosa PA14 (IV 100 μl of 10 mM, 4 days pre-BI) is around 90%. In the test with P. aeruginosa PA14 (IV tail vein 100 μl of 10 mM, four days prior to burn/infection, n=8-10, control 10% (FIG. 9)), the “average survival after 5 days” value turned out to be 50%. Besides, the “protection (survival)” value in the test with P. aeruginosa PA14 (single IP injection 500 μl of 20 mM, 6 hours pre-BI) is “no protection”.
